Our source for the IC50 values is ChEMBL document CHEMBL2396623, “Direct targeting of β-catenin: Inhibition of protein-protein interactions for the inactivation of Wnt signaling” (Bioorg Med Chem, 2013).

Structures are written as SMILES. Where only a bound is given, the exact number is not on record here.

This experiment has as its target T1, Catenin beta-1 (Homo sapiens, UniProt P35222).
T1 sequence (P35222 whole entry): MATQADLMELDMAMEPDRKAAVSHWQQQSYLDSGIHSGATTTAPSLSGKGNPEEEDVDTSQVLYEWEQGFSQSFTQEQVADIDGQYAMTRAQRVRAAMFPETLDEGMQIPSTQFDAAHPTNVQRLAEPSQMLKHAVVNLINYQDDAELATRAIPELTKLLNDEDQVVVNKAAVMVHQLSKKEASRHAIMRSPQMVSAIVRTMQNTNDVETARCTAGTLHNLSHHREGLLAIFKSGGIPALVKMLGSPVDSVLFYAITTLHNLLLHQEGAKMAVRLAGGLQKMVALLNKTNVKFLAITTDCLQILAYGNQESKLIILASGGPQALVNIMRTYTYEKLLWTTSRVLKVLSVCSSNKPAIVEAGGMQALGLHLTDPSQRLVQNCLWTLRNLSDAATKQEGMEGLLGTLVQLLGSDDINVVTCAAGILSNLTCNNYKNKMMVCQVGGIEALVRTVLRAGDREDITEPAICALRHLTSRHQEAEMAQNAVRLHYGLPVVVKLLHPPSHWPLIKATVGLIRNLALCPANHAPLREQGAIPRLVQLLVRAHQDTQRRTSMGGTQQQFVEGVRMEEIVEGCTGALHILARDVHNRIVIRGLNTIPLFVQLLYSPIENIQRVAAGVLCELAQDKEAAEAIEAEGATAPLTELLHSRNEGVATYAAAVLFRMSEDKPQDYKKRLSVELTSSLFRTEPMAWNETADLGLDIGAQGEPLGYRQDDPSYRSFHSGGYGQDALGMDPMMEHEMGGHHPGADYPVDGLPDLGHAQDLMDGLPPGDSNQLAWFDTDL
The experiment in a line: Inhibition of GST-tagged Tcf4 binding to human beta-catenin after 2 hrs by ELISA.
With `COC(=O)c1c(C)cc2c(c1O)[C@]1(O)C(=O)c3cc4c(c(O)c3C(=O)[C@]1(OC)[C@H](O)C2)C(=O)C=C(N[C@@H]1O[C@H](C)[C@@H](OC)[C@H](O)[C@@H]1OC)C4=O`, the half-inhibitory concentration (IC50) – broadly, the concentration at which inhibition is half-maximal – is under 10 µM. Compound `COc1c(C[C@@H](C)OC(=O)Oc2ccc(O)cc2)c2c3c(C[C@@H](C)OC(=O)c4ccccc4)c(OC)c(=O)c4c(O)cc(OC)c(c5c(OC)cc(O)c(c1=O)c52)c43` [CALPHOSTIN C] returned a concentration for half-maximal inhibition (IC50) of under 10 µM. Regarding `COc1c(CC(C)OC(=O)c2c(C)cc(O)cc2O)c2c3c(CC(C)OC(=O)c4c(C)cc(O)cc4O)c(OC)c(=O)c4c(O)cc(OC)c(c5c(OC)cc(O)c(c1=O)c52)c43` (centres undefined), the 50% inhibitory concentration (IC50) was under 10 µM. In turn, `CCCC(=O)c1cc2c(c(O)c1C)C(=O)C(=O)c1c(O)cccc1-2` displayed a half-inhibitory concentration (IC50) of under 10 µM.
